According to patent publication US20130190487A1, “PROCESS FOR THE PREPARATION OF EZETIMIBE AND DERIVATIVES THEREOF” (KRKA, priority 2007, published 2013):

How the values were obtained:
Type in all cases: physicochemical
[1] = Water sorption/desorption on automatic water sorption analyzer DVS-1; details: 25° C.
Description: Anhydro form of ezetimibe was tested on the automatic water sorption analyzer DVS-1 (Surface Measurement Systems Ltd., London, GB) under the following conditions: • controlled room temperature (25° C.) • nitrogen flow 200 ml/min • two full cycles from 0% RH to 95% RH and back in eleven stages • minimal time per one stage (when dm/dt<0.002%) was 10 min • maximal time per one stage was 360 min.

[2] = Drying in a vacuum dryer, XRPD analysis; details: ambient temperature, cca. 100 mbar
Description: Hydrated form H of ezetimibe was dried in a vacuum dryer at an ambient temperature and a pressure of cca. 100 mbar. After 1 h anhydrous form already predominated (A>H), after 2 h it became the sole form according to XRPD analysis.

[3] = Heating in Mettler HR73 Halogen Moisture Analyzer (LOD), then XRPD analysis
Source text: Hydrated form H of ezetimibe (from Example 30) was heated in a Mettler HR73 Halogen Moisture Analyzer. […] In all cases anhydro form of ezetimibe resulted according to XRPD analysis.
Pure S form of ezetimibe (tert.-butanol solvate; from Example 32) was heated in a Mettler HR73 Halogen Moisture Analyzer at different temperatures for the time indicated and analyzed by XRPD.

[4] = Drying in an air dryer, XRPD analysis
Source text: Hydrated form H of ezetimibe was dried in an air dryer (RH was 35%) at two different temperatures.

Question: For `O=C1[C@H](CC[C@H](O)c2ccc(F)cc2)[C@@H](c2ccc(O)cc2)N1c1ccc(F)cc1` [Anhydro form of ezetimibe, 1-(4-fluorophenyl)-3(R)-[3-(4-fluorophenyl)-3(S)-hydroxypropyl]-4(S)-(4-hydroxyphenyl)-2-azetidinone], which “mass in the desorption cycle” value ([1]; at 20% RH) is on record?
Answer: dropped sharply

Question: And the “mass in the desorption cycle” value ([1]; down to 30% RH)?
Answer: not significantly changed

Question: And the “water sorption, mass change at equilibrium” value ([1]; first cycle, 60% RH)?
Answer: 4.2%

Question: And the “water sorption, total” value ([1]; first cycle, 95% RH)?
Answer: 4.4%

Question: And the absorption of water ([1]; first cycle, up to 50% RH)?
Answer: no significant absorption of water

Question: And the water sorption ([1]; second cycle, 50% RH)?
Answer: increased sharply

Question: Which results are given for `O=C1[C@H](CC[C@H](O)c2ccc(F)cc2)[C@@H](c2ccc(O)cc2)N1c1ccc(F)cc1` [Hydrated form H of ezetimibe, 1-(4-fluorophenyl)-3(R)-[3-(4-fluorophenyl)-3(S)-hydroxypropyl]-4(S)-(4-hydroxyphenyl)-2-azetidinone]?
Answer: form according to XRPD analysis ([2]; after 1 h): A>H; form according to XRPD analysis ([2]; after 2 h): sole form; time to constant value of LOD ([3]; 50° C.): 11.5 min; time to constant value of LOD ([3]; 60° C.): 6.5 min; time to constant value of LOD ([3]; 70° C.): 4.5 min; resulting form according to XRPD analysis ([3]; after heating at 50, 60 or 70° C. to constant LOD): anhydro form; Constant value of LOD ([3]; heated at 50° C., 60° C. or 70° C.): −4.5%; form detected according to XRPD analysis ([4]; air dryer, RH 35%, 40° C., after 1 h): only anhydro form; temperature at which converted to anhydrous form A ([4]; upon drying): about 40 °C

Question: For `O=C1[C@H](CC[C@H](O)c2ccc(F)cc2)[C@@H](c2ccc(O)cc2)N1c1ccc(F)cc1` [S form of ezetimibe, 1-(4-fluorophenyl)-3(R)-[3-(4-fluorophenyl)-3(S)-hydroxypropyl]-4(S)-(4-hydroxyphenyl)-2-azetidinone], which stability upon drying [3] is on record?
Answer: stable upon drying

Question: What about the “LOD (%)” value ([3]; 50 ° C., 14 min) of the same molecule?
Answer: −0.83%

Question: What about the “LOD (%)” value ([3]; 60 ° C., 10.5 min) of the same molecule?
Answer: −1.10%

Question: And the “LOD (%)” value ([3]; 70 ° C., 9 min)?
Answer: −2.34%

Question: And the “LOD (%)” value ([3]; 130 ° C., 4.5 min)?
Answer: −12.0%

Question: What about the loss of drying ([3]; temperature of about 70° C.) of the same molecule?
Answer: only minimal loss of drying
